# From US9217139B2, “Extracellularly secreted nuclease” (JAPAN AGENCY FOR MARINE-EARTH SCIENCE AND TECHNOLOGY, priority 2010, dated 2015)
# Values joined by “and” are separate entries in the source; they are usually repeats but may differ in a detail not shown here. Identical values can stand only once. Like-named read-outs stand apart in the source and are kept apart here.
# Key:
# NucL = format: biochemical, Streptomyces sp. MBE174; details: for effect of the chemical substance on NucL activity (in words): summary of Table 3
# Experimental: (§1) In this case, 1 U represents an amount of enzymes necessary to increase the absorbancy of 260 nm by one for 30 minutes when the enzymes works on the following as substrate: Salmon sperm DNA 1 mg/mL (manufactured by Invitrogen; Cat no. 15632-011).
# (§2) NucS and NucL were kept in contact with the compounds listed in Table 3 on an ice bath for one hour, and then, the enzyme activity was measured by the standard specific activity measurement method (referring to Table 3). […] Incidentally, poorly water-soluble compounds were dissolved in dimethyl sulfoxide, and then added to an enzyme solution. The final concentration of dimethyl sulfoxide after addition was 5 percent. The activity in the presence of 5 percent of dimethyl sulfoxide was regarded as being 100 percent.
# NucS = format: biochemical, Streptomyces sp. MBE174
# Experimental: as §1, §2
# Salmon sperm DNA = assay: standard specific activity measurement method (increase of absorbancy at 260 nm); format: biochemical; details: fraction after each purification step of NucS (Table 1)
# Experimental: The specific activity of NucS was measured at 37 degrees Celsius in 20 mM of Tris/HCl at pH 8.5 that contains 1 mM of MgCl2 and 1 mM of CaCl2 (a measurement method under the condition described here is also referred to as a standard specific activity measurement method, hereinafter); the specific activity was 3.6×10^6 U/mg-protein, which was a very high level of specific activity. In this case, 1 U represents an amount of enzymes necessary to increase the absorbancy of 260 nm by one for 30 minutes when the enzymes works on the following as substrate: Salmon sperm DNA 1 mg/mL (manufactured by Invitrogen; Cat no. 15632-011). As a reference, as for NucS, when the specific activity of Benzonase (Registered Trademark), which was a commercially available nucleolytic enzyme that had the highest specific activity among those listed in a brochure, was measured under the conditions described in the brochure (37 degrees Celsius) with the use of the same substrate; the specific activity was 9.4×10^5 U/mg-protein. As a result, it became clear that the specific activity of NucS is about 3.8 times higher than that of Benzonase.
# The specific activity of NucL was 5.6×10^4 U/mg-protein at 37 degrees Celsius in 20 mM of Tris/HCl at pH 8.5 that contains 1 mM of MgCl2 and 1 mM of CaCl2. The isoelectric point was measured by using Novex (Registered Trademark) IEF pH-3-10 gel (manufactured by Invitrogen); and then pl was 7.0. Then, it was determined that a N-terminal amino acid sequence of the purified enzyme was DSVRIHDIQGTTR. The sequence matched 12 out of 13 amino acids of putative protein (putative secreted hydrolase) coded on a genome of Streptomyces scabiei 87.22, and of putative protein (large secreted protein) coded on a genome of S. avermitilis MA-4680.
# [1] = chemical at 0.1%, contact on ice bath one hour, additive-free = 100
# [2] = chemical at 1.0%, contact on ice bath one hour, additive-free = 100
# [3] = chemical at 10.0%, contact on ice bath one hour, additive-free = 100
# [4] = chemical at 20.0%, contact on ice bath one hour, additive-free = 100
# [5] = chemical at 1.0 mM, contact on ice bath one hour, additive-free = 100
# [6] = chemical at 5.0 mM, contact on ice bath one hour, additive-free = 100
# [7] = chemical at 2.0M, contact on ice bath one hour, additive-free = 100
# [8] = chemical at 4.0M, contact on ice bath one hour, additive-free = 100
# [9] = chemical at 6.0M, contact on ice bath one hour, additive-free = 100
# [10] = chemical at 0.1 mM, contact on ice bath one hour, additive-free = 100
compound,measurement,setting,value
Triton X,Relative activity of NucL (%),NucL; [1],137%
same,Relative activity of NucL (%),NucL; [2],128%
same,Relative activity of NucS (%),NucS; [1],115%
same,Relative activity of NucS (%),NucS; [2],108%
C[S+](C)[O-] [Dimethyl sulfoxide],Relative activity of NucL (%),NucL; [2],105%
same,Relative activity of NucL (%),NucL; [3],75%
same,Relative activity of NucL (%),NucL; [4],40%
same,Relative activity of NucS (%),NucS; [2],110%
same,Relative activity of NucS (%),NucS; [3],116%
same,Relative activity of NucS (%),NucS; [4],113%
same,effect of the chemical substance on NucS activity (in words),NucS; summary of Table 3,high resistance
O=C(O)CI [Iodoacetic acid],Relative activity of NucL (%),NucL,102% and 97%
same,Relative activity of NucS (%),NucS,103% and 96%
OCCS [Melcaptoethanol],Relative activity of NucL (%),NucL; [5],89%
same,Relative activity of NucL (%),NucL; [6],92%
same,Relative activity of NucS (%),NucS; [5],112%
same,Relative activity of NucS (%),NucS; [6],116%
O[C@H](CS)[C@H](O)CS (racemic) [Dithiothreitol],Relative activity of NucL (%),NucL; [5],89%
same,Relative activity of NucL (%),NucL; [6],89%
same,Relative activity of NucS (%),NucS; [5],105%
same,Relative activity of NucS (%),NucS; [6],104%
O=S(=O)(F)Cc1ccccc1 [Phenylmethanesulfonyl fluoride],Relative activity of NucL (%),NucL; [5],111%
same,Relative activity of NucL (%),NucL; [6],99%
same,Relative activity of NucS (%),NucS; [5],85%
same,Relative activity of NucS (%),NucS; [6],87%
NC(N)=O [Urea],Relative activity of NucL (%),NucL; [7],64%
same,Relative activity of NucL (%),NucL; [8],55%
same,Relative activity of NucL (%),NucL; [9],43%
same,Relative activity of NucS (%),NucS; [7],125%
same,Relative activity of NucS (%),NucS; [8],126%
same,Relative activity of NucS (%),NucS; [9],92%
[Cl][Cu][Cl] [CuCl2],Relative activity of NucL (%),NucL; [10],96%
same,Relative activity of NucL (%),NucL; [5],9%
same,effect of the chemical substance on NucL activity (in words),NucL,strongly inhibited
same,Relative activity of NucS (%),NucS; [10],111%
same,Relative activity of NucS (%),NucS; [5],3%
same,effect of the chemical substance on NucS activity (in words),NucS; summary of Table 3,strongly inhibited
CN(C)C=O [Dimethyl formamide],Relative activity of NucL (%),NucL; [2],99%
same,Relative activity of NucL (%),NucL; [3],74%
same,Relative activity of NucL (%),NucL; [4],56%
same,Relative activity of NucS (%),NucS; [2],91%
same,Relative activity of NucS (%),NucS; [3],118%
same,Relative activity of NucS (%),NucS; [4],117%
same,effect of the chemical substance on NucS activity (in words),NucS; summary of Table 3,high resistance
O=C(O)c1cc[c]([Hg][Cl])cc1 [Parachloro mercury benzoate],Relative activity of NucL (%),NucL; [10],108%
same,Relative activity of NucL (%),NucL; [5],91%
same,Relative activity of NucS (%),NucS; [10],92%
same,Relative activity of NucS (%),NucS; [5],94%
Hydroxyapatite,Specific activity (U/mg),Salmon sperm DNA,38596 U/mg
CCCCCCCCCCCCOS(=O)(=O)[O-].[Na+] [SDS],Relative activity of NucL (%),NucL; [1],89%
same,Relative activity of NucL (%),NucL; [2],121%
same,effect of the chemical substance on NucL activity (in words),NucL,high resistance
same,Relative activity of NucS (%),NucS; [1],85%
same,Relative activity of NucS (%),NucS; [2],0%
[Cl-].[Cl-].[Zn+2] [ZnCl2],Relative activity of NucL (%),NucL; [10],1%
same,Relative activity of NucL (%),NucL; [5],0%
same,effect of the chemical substance on NucL activity (in words),NucL,strongly inhibited
same,Relative activity of NucS (%),NucS; [10],3%
same,Relative activity of NucS (%),NucS; [5],0%
same,effect of the chemical substance on NucS activity (in words),NucS; summary of Table 3,strongly inhibited
O=C(O)CN(CCN(CC(=O)O)CC(=O)O)CC(=O)O [Ethylenediaminetetraacetic acid],Relative activity of NucL (%),NucL; [6],0%
same,Relative activity of NucL (%),"NucL; chemical at 10.0 mM, contact on ice bath one hour, additive-free = 100",0%
same,effect of the chemical substance on NucL activity (in words),NucL,strongly inhibited
same,Relative activity of NucS (%),NucS,0%
same,effect of the chemical substance on NucS activity (in words),NucS,strongly inhibited
